Several values for one entry are separate records, joined by “and”; a condition that tells them apart may be missing. Equal values may be shown once.
Assay: Biological Assays: The activity of a compound according to the present invention can be assessed by well-known in vitro & in vivo methods. […] CRAF cDNA was subcloned as full length protein, with Y340E and Y341E activating mutations, into a baculovirus expression vector for Sf9 insect cell expression. h14-3-3 zeta cDNA was subcloned into a baculovirus expression vector for SF9 insect cell expression. Sf9 cells co-expressing both proteins were lysed and subjected to immobilized nickel chromatography and eluted with Imidazole. A second column (StrepII binding column) was used and eluted with desthiobiotin. Protein Tags were removed using Prescission enzyme and the protein was further purified using a flowthrough step to remove tags.C-Raf TR refers to a truncated C-Raf protein, a Δ1-324 deletion mutant. C-Raf FL refers to the full-length C-Raf protein.Full length MEK1 with an inactivating K97R ATP binding site mutation is utilized as a RAF substrate. The MEK1 cDNA was subcloned with an N-terminal (his)6 tag into a vector for E. Coli expression. The MEK1 substrate was purified from E. Coli lysate by nickel affinity chromatography followed by anion exchange. The final MEK1 preparation was biotinylated (Pierce EZ-Link Sulfo-NHS-LC-Biotin) and concentrated.Assay Materials: Assay buffer is 50 mM Tris, pH 7.5, 15 mM MgCl2, 0.01% Bovine Serum Albumin (BSA) and 1 mM dithiothreitol (DTT); Stop buffer is 60 mM ethylenediaminetetraacetic acid (EDTA) and 0.01% Tween® 20; b-Raf (V600E), active; biotinylated Mek, kinase dead; Alpha Screen detection kit (available from PerkinElmer™, #6760617R); Anti phospho-MEK1/2 (available from Cell Signaling Technology, Inc. #9121); 384 well low volume assay plates (White Greiner® plates).Assay conditions: b-Raf (V600E) approximately 4 pM; c-Raf approximately 4 nM; biotinylated Mek, kinase dead approximately 10 nM; ATP 10 μM for BRAF (V600E) and 1 μM for CRAF; Pre-incubation time with compounds 60 minutes at room temperature; Reaction time 1 or 3 hours at room temperature.Assay protocol: Raf and biotinylated Mek (kinase dead) were combined at 2× final concentrations in assay buffer (50 mM Tris, pH 7.5, 15 mM MgCl2, 0.01% BSA and 1 mM DTT) and dispensed […] per well in assay plates (Greiner white 384 well assay plates #781207) containing […] of 40× of a Raf kinase inhibitor test compound diluted in 100% DMSO. The plate was incubated for 60 minutes at room temperature. The Raf kinase activity reaction was started by the addition of […] per well of 2×ATP diluted in assay buffer. After 3 hours (b-Raf(V600E)) or 1 hour (c-Raf). The reactions were stopped and the phosphorylated product was measured using a rabbit anti-p-MEK (Cell Signaling, #9121) antibody and the Alpha Screen IgG (ProteinA) detection Kit (PerkinElmer #6760617R), by the addition of […] to the well of a mixture of the antibody (1:2000 dilution) and detection beads (1:2000 dilution of both beads) in Stop/bead buffer (25 mM EDTA, 50 mM Tris, pH 7.5, 0.01% Tween20). The additions were carried out under dark conditions to protect the detection beads from light. A lid was placed on top of the plate and incubated for 1 hour at room temperature, after which the luminescence was read on a PerkinElmer Envision instrument.
Type: biochemical

First: Cc1ccc(NC(=O)c2ccnc(C(F)(F)F)c2)cc1-c1cnc2c(c1)N1CCOCC1[C@H](CO)C2 (mixture of isomers)
Second: Cc1ccc(NC(=O)c2ccnc(C(F)(F)F)c2)cc1-c1cnc2c(c1)N1CCOCC1C(CS(C)(=O)=O)C2 (racemic)
The IC50 of the first is 7.6-fold lower: 5 pM for the first, 38 pM for the second.

First: CNC(=O)[C@@H]1Cc2ccc(-c3cc(NC(=O)c4ccnc(C(F)(F)F)c4)ccc3C)cc2N2CCOC[C@H]12
Second: Cc1ccc(NC(=O)c2ccnc(C(C)(F)F)c2)cc1-c1ccc2c(c1)N1CCOC[C@H]1[C@@](C)(N)C2
The IC50 of the first is 4.7-fold lower: 130 pM for the first, 610 pM for the second.

First: CC[C@H]1Cc2nnc(-c3cc(NC(=O)c4ccnc(C(C)(F)F)c4)ccc3C)cc2N2CCOC[C@H]12
Second: CC[C@@H]1Cc2nnc(-c3cc(NC(=O)c4ccnc(C(C)(F)F)c4)ccc3C)cc2N2CCOC[C@H]12
The IC50 of the first is 2-fold higher: 200 pM for the first, 100 pM for the second. The second is the more potent here.

First: Cc1ncc(NC(=O)c2cccc(C(F)(F)F)c2)cc1-c1cnc2c(c1)N1CCOC[C@H]1[C@](F)(CO)C2
Second: Cc1ncc(NC(=O)c2cccc(C(F)(F)F)c2)cc1-c1ccc2c(c1)N1CCOCC1CC2O (racemic)
The IC50 of the first is 110-fold higher: 1100 pM for the first, 10 pM for the second.

Compared with `Cc1ccc(NC(=O)c2ccnc(C(C)(F)F)c2)cc1-c1ccc2c(c1)N1CCOC[C@@H]1[C@](C)(N)C2`, `CC[C@H]1Cc2nnc(-c3cc(NC(=O)c4ccnc(C(C)(F)F)c4)ccc3C)cc2N2CCOC[C@@H]12` is 4-fold higher in IC50: 25 pM for the first, 100 pM for the second. The first is the more potent here.

For `CNC(=O)C1Cc2ccc(-c3cc(NC(=O)c4ccnc(C(F)(F)F)c4)ccc3C)cc2N2CCOC[C@@H]12` (some centres not stated), the IC50 was 32 pM and 27 pM.
In the case of `CNC(=O)C1Cc2ccc(-c3cc(NC(=O)c4ccnc(C(F)(F)F)c4)ccc3C)cc2N2CCOC[C@H]12` (some centres not stated), the IC50 is reported as 28 pM and 14 pM.

Source: ChEMBL document CHEMBL5727253, “Tricyclic compounds and compositions as kinase inhibitors” (2019)
